# Tests used:
# [1] = test system: Staphylococcus aureus ATCC 29213; test: MIC, broth microdilution (CLSI) versus planktonic bacteria; assay type: cell-based; conditions: ATCC29213; Staphylococcus aureus ATCC 29213; 16-20 h; mode of three independent experiments; read-out: MIC, Sa ATCC 29213
# [2] = test system: E. coli MG1655 D87G; assay type: cell-based, Escherichia coli; conditions: compared to the isogenic parent strain E. coli MG1655; D87G mutation on DNA gyrase subunit GyrA
# [3] = test system: E. coli NCTC 13476; test: MIC, broth microdilution (CLSI) versus planktonic bacteria; assay type: cell-based; conditions: NCTC13476; Escherichia coli NCTC 13476; 16-20 h; mode of three independent experiments; read-out: MIC, Ec NCTC 13476
# [4] = test system: Acinetobacter baumannii NCTC 13420; test: as above; assay type: cell-based; conditions: NCTC13420; Acinetobacter baumannii NCTC 13420; 16-20 h; mode of three independent experiments; read-out: MIC, Ab NCTC 13420
# [5] = test system: Pseudomonas aeruginosa ATCC 27853; test: as above; assay type: cell-based; conditions: ATCC27853; Pseudomonas aeruginosa ATCC 27853; 16-20 h; mode of three independent experiments; read-out: MIC, Pa ATCC 27853
# [6] = test system: Escherichia coli ATCC 25922; test: as above; assay type: cell-based; conditions: ATCC25922; Escherichia coli ATCC 25922; 16-20 h; mode of three independent experiments; read-out: MIC, Ec ATCC 25922
# [7] = test system: E. coli MG1655; test: as above; assay type: cell-based, Escherichia coli; conditions: Escherichia coli, MG1655, read-out: MIC, Ec MG1655 WT
# [8] = test system: Haemophilus influenzae ATCC 49247; test: as above; assay type: cell-based; conditions: ATCC49247; Haemophilus influenzae ATCC 49247; 16-20 h; mode of three independent experiments; read-out: MIC, Hi ATCC 49247
# [9] = test system: human hepatic cell line (HepG2 ATCC HB-8065); test: Human cell viability assay (CellTiter-Glo); conditions: Homo sapiens, HepG2, 24 h, read-out: IC50 (μg/mL) HepG2
# [10] = test system: E. coli ATCC BAA-2452; test: MIC, broth microdilution (CLSI) versus planktonic bacteria; assay type: cell-based; conditions: Escherichia coli ATCC BAA-2452; 16-20 h; mode of three independent experiments; read-out: MIC, Ec ATCC BAA 2452
# [11] = test system: Streptococcus pneumoniae ATCC 49619; test: as above; assay type: cell-based; conditions: ATCC49619; Streptococcus pneumoniae ATCC 49619; 16-20 h; mode of three independent experiments; read-out: MIC, Sp ATCC 49619
# [12] = test system: Acinetobacter baumannii ATCC 19606; test: as above; assay type: cell-based; conditions: ATCC19606; Acinetobacter baumannii ATCC 19606; 16-20 h; mode of three independent experiments; read-out: MIC, Ab ATCC 19606
# [13] = test system: E. coli MG1655 S83L; assay type: cell-based, Escherichia coli; conditions: compared to the isogenic parent strain E. coli MG1655; S83L mutation on DNA gyrase subunit GyrA
# [14] = test system: Enterobacter cloacae NCTC 13406; test: MIC, broth microdilution (CLSI) versus planktonic bacteria; assay type: cell-based; conditions: NCTC13406; Enterobacter cloacae NCTC 13406; 16-20 h; mode of three independent experiments; read-out: MIC, Ecl NCTC 13406
SMILES,MIC [1] [µg/mL],"Fold increase in MIC, E. coli MG1655 D87G [2] [fold]",MIC [3] [µg/mL],MIC [4] [µg/mL],MIC [5] [µg/mL],MIC [6] [µg/mL],MIC [7] [µg/mL],MIC [8] [µg/mL],IC50 [9] [µg/mL],MIC [10] [µg/mL],MIC [11] [µg/mL],MIC [12] [µg/mL],"Fold increase in MIC, E. coli MG1655 S83L [13] [fold]",MIC [14] [µg/mL]
"O=C1COc2ccc(N3C(=O)O[C@H]4C[C@@H](NCCn5c(=O)ccc6nccnc65)CC[C@@H]43)nc2N1 [Compound 100, (3aS,6S,7aS)-3-{3-oxo-2H,3H,4H-pyrido[3,2-b][1,4]oxazin-6-yl}-6-[(2-{6-oxo-5H,6H-pyrido[2,3-b]pyrazin-5-yl}ethyl)amino]-octahydro-1,3-benzoxazol-2-one]",< 1,1,1 to 10,< 1,10 to 100,< 1,< 1,< 1,> 100,1 to 10,< 1,1 to 10,1,1 to 10
"COc1cnc2ccc(=O)n(CCN[C@H]3CC[C@H]4[C@@H](C3)OC(=O)N4c3ccc4c(n3)NC(=O)CO4)c2c1 [Compound 30, 1-(2-{[(3aS,6S,7aR)-2-oxo-3-{3-oxo-2H,3H,4H-pyrido[3,2-b][1,4]oxazin-6-yl}-octahydro-1,3-benzoxazol-6-yl]amino}ethyl)-7-methoxy-1,2-dihydro-1,5-naphthyridin-2-one]",< 1,2,< 1,< 1,< 1,< 1,< 1,< 1,> 100,< 1,< 1,1 to 10,2,1 to 10
"CN(CCn1c(=O)ccc2ccc(C#N)cc21)[C@H]1CC[C@H]2[C@@H](C1)OC(=O)N2c1ccc2c(n1)NC(=O)CO2 [Compound 47, 1-(2-{[(3aS,6S,7aR)-2-oxo-3-{3-oxo-2H,3H,4H-pyrido[3,2-b][1,4]oxazin-6-yl}-octahydro-1,3-benzoxazol-6-yl](methyl)amino}ethyl)-2-oxo-1,2-dihydroquinoline-7-carbonitrile]",< 1,1,1 to 10,< 1,< 1,< 1,< 1,< 1,10 to 100,< 1,< 1,< 1,2,< 1
"COc1ccc2ccc(=O)n(CCN(CCO)[C@H]3CC[C@H]4[C@@H](C3)OC(=O)N4c3ccc4c(n3)NC(=O)CO4)c2n1 [Compound 7, 1-(2-{[(3aS,6S,7aR)-2-oxo-3-{3-oxo-2H,3H,4H-pyrido[3,2-b][1,4]oxazin-6-yl}-octahydro-1,3-benzoxazol-6-yl](2-hydroxyethyl)amino}ethyl)-7-methoxy-1,2-dihydro-1,8-naphthyridin-2-one]",< 1,1,1 to 10,< 1,1 to 10,< 1,< 1,1 to 10,> 100,1 to 10,< 1,1 to 10,1,1 to 10
"COc1ccc2ccc(=O)n(CCCN[C@H]3CC[C@H]4[C@H](C3)OC(=O)N4c3ccc4c(n3)NC(=O)CS4)c2n1 [Compound 85, 1-(3-{[(3aS,6S,7aS)-2-oxo-3-{3-oxo-2H,3H,4H-pyrido[3,2-b][1,4]thiazin-6-yl}-octahydro-1,3-benzoxazol-6-yl]amino}propyl)-7-methoxy-1,2-dihydro-1,8-naphthyridin-2-one]",< 1,1,< 1,< 1,1 to 10,< 1,< 1,< 1,10 to 100,< 1,< 1,< 1,1,< 1
"O=C1COc2ccc(N3C(=O)O[C@H]4C[C@@H](NCCn5c(=O)cnc6ccc(F)cc65)CC[C@@H]43)nc2N1 [Compound 84, 1-(2-{[(3aS,6S,7aS)-2-oxo-3-{3-oxo-2H,3H,4H-pyrido[3,2-b][1,4]oxazin-6-yl}-octahydro-1,3-benzoxazol-6-yl]amino}ethyl)-7-fluoro-1,2-dihydroquinoxalin-2-one]",< 1,1,< 1,,1 to 10,< 1,< 1,< 1,10 to 100,< 1,< 1,< 1,1,< 1
"N#Cc1ccc2ccc(=O)n(CCN[C@H]3CC[C@H]4[C@@H](C3)OC(=O)N4c3ccc4c(n3)NC(=O)CO4)c2c1 [Compound 14, 1-(2-{[(3aS,6S,7aR)-2-oxo-3-{3-oxo-2H,3H,4H-pyrido[3,2-b][1,4]oxazin-6-yl}-octahydro-1,3-benzoxazol-6-yl]amino}ethyl)-2-oxo-1,2-dihydroquinoline-7-carbonitrile]",< 1,2,< 1,< 1,< 1,< 1,< 1,< 1,> 100,< 1,< 1,< 1,2,< 1
"N#Cc1ccc2ccc(=O)n(CCN[C@H]3CC[C@H]4[C@H](C3)OC(=O)N4c3ccc4c(n3)NC(=O)CO4)c2c1 [Compound 56, 1-(2-{[(3aS,6S,7aS)-2-oxo-3-{3-oxo-2H,3H,4H-pyrido[3,2-b][1,4]oxazin-6-yl}-octahydro-1,3-benzoxazol-6-yl]amino}ethyl)-2-oxo-1,2-dihydroquinoline-7-carbonitrile]",< 1,2,< 1,< 1,,< 1,< 1,< 1,10 to 100,< 1,< 1,< 1,1,< 1
"N#Cc1cccc(-c2cccc(CN[C@H]3CC[C@H]4[C@H](C3)OC(=O)N4c3ccc4c(n3)NC(=O)CO4)n2)c1 [Compound 105, 3-[6-({[(3aS,6S,7aS)-2-oxo-3-{3-oxo-2H,3H,4H-pyrido[3,2-b][1,4]oxazin-6-yl}-octahydro-1,3-benzoxazol-6-yl]amino}methyl)pyridin-2-yl]benzonitrile]",< 1,1,1 to 10,< 1,1 to 10,< 1,< 1,< 1,10 to 100,< 1,,< 1,1,1 to 10
"N#Cc1cnc2ccc(=O)n(CCN[C@H]3CC[C@H]4[C@H](C3)OC(=O)N4c3ccc4c(n3)NC(=O)CO4)c2c1 [Compound 55, 5-(2-{[(3aS,6S,7aS)-2-oxo-3-{3-oxo-2H,3H,4H-pyrido[3,2-b][1,4]oxazin-6-yl}-octahydro-1,3-benzoxazol-6-yl]amino}ethyl)-6-oxo-5,6-dihydro-1,5-naphthyridine-3-carbonitrile]",< 1,1,< 1,< 1,,< 1,< 1,< 1,> 100,< 1,< 1,< 1,1,< 1
